Source: US20230102488A1, “COMPOUNDS AND THEIR USE FOR THE TREATMENT OF ALPHA1-ANTITRYPSIN DEFICIENCY” (Z Factor Limited, priority 2019, published 2023)
Where two headings read alike, the source gives them in different places.

Target: T1, Z A1AT (Homo sapiens, UniProt P01009, E366K)
T1 construct: expressed in transfected cells; host or cells: HEK-Z cells (human embryonic kidney cell line)
Test: A1AT cell secretion assay using HEK-Z cells (A1AT ELISA of supernatants)
Type: cell-based
Conditions: 48 h, read-out: Median A1AT % increase over vehicle at 300 nM
Method: HEK-Z cells, a human embryonic kidney cell line stably transfected with the human Z A1AT gene, were plated into 96 well plates (3.0×10^5 cells/ml with 200 μl of media/well) overnight at 37° C. in a humidified atmosphere containing 5% CO2. Following incubation cells were washed with 200 μl serum-free media three times and media was replaced with treatments in quadruplicate using serum free media containing either vehicle, 10 μM suberanilohydroxamic acid (SAHA) or a compound of the invention ([…]) for 48 h in a 37° C. incubator in a final volume of 200 μl. At the end of the incubation step the supernatants were removed from the wells, centrifuged at 1000×g at 4° C. for 10 min and were assayed for human A1AT levels by ELISA (Human Serpin A1/α1-antitrypsin duo set ELISA, R& D Systems, DY1268) per manufacturer's instructions.
Briefly, a 96 well plate was coated with human A1AT capture antibody overnight at room temperature (1:180 dilution from stock, 100 μl final volume/well). The capture antibody was then removed and wells washed three times with 300 μl wash buffer (0.05% Tween 20 in PBS) and then 200 μl reagent diluent ([…]) was incubated in each well for 1 h at room temperature. Diluted samples, standards (125, 250, 500, 1000, 2000, 4000 and 8000 pg/ml A1AT) or blanks were then added to each well in duplicate and the plates were covered with a plate sealer and left at room temperature for 2 h. At the end of the sample incubation step, samples were removed and all wells washed as previously and 100 μl detection antibody (1:180 dilution from stock) was added to each well and incubated for a further 2 h at room temperature. Following incubation with detection antibody, supernatant was removed and wells were washed as previously and 100 μl streptavidin-HRP solution (1:200 dilution from stock) was added to each well for 20 min in the dark. After which, 50 μl stop solution (2M H2SO4) was added and optical density (OD) of each well was read at 450 nm with 570 nm blank subtracted from each well using a microplate reader. A 4 parameter logistic curve was constructed using GraphPad Prism 7 and A1AT concentrations were determined in each sample by interpolation from a standard curve and multiplying by the appropriate dilution factor.

[1] = HEK-Z cells, 300 nM, secreted human A1AT in supernatant by ELISA

T1 sequence (P01009 25-418 E366K): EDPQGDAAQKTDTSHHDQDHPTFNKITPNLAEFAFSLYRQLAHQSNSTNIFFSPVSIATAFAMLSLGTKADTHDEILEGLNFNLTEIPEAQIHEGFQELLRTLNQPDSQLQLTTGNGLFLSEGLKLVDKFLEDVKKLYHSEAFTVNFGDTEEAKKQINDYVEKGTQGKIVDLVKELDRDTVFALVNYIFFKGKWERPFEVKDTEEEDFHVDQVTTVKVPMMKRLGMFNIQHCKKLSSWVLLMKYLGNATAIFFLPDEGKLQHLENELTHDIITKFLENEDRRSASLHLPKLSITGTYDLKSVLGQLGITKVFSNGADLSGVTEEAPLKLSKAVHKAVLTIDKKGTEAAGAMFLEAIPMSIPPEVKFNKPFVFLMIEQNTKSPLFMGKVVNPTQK

SMILES | activation at 0.3 µM [1] | activation at 0.3 µM
CCN(C)C(=O)c1ccc(Cn2cnccc2=O)cc1 [Example 1, N-Ethyl-N-methyl-4-((6-oxopyrimidin-1(6H)-yl)methyl)benzamide] | 330% | –
O=C(c1ccc(Cn2cnccc2=O)cc1)N1CCCC1 [Example 2, 3-(4-(Pyrrolidine-1-carbonyl)benzyl)pyrimidin-4(3H)-one] | 350% | –
O=C(c1ccc(Cn2cnccc2=O)cc1)N1CCOCC1 [Example 3, 3-(4-(Morpholine-4-carbonyl)benzyl)pyrimidin-4(3H)-one] | 280% | –
CN1CCN(C(=O)c2ccc(Cn3cnccc3=O)cc2)CC1 [Example 4, 3-(4-(4-Methylpiperazine-1-carbonyl)benzyl)pyrimidin-4(3H)-one] | 390% | –
CNC(=O)c1ccc(Cn2cnc3ccccc3c2=O)cc1 [Example 5, N-Methyl-4-((4-oxoquinazolin-3(4H)-yl)methyl)benzamide] | – | 180%
CNC(=O)c1ccc(Cn2cnc3ccc(Cl)cc3c2=O)cc1 [Example 6, 4-((6-chloro-4-oxoquinazolin-3(4H)-yl)methyl)-N-methylbenzamide] | 200% | –
CC(C)N(C)C(=O)c1ccc(Cn2cnccc2=O)cc1 [Example 7, N-isopropyl-N-methyl-4-((6-oxopyrimidin-1(6H)-yl)methyl)benzamide] | 160% | –
CN(Cc1ccccc1)C(=O)c1ccc(Cn2cnccc2=O)cc1 [Example 8, N-benzyl-N-methyl-4-((6-oxopyrimidin-1(6H)-yl)methyl)benzamide] | 150% | –
CN(CC(F)(F)F)C(=O)c1ccc(Cn2cnccc2=O)cc1 [Example 9, N-methyl-4-((6-oxopyrimidin-1(6H)-yl)methyl)-N-(2,2,2-trifluoroethyl)benzamide] | 170% | –
NC(=O)c1ccc(Cn2cnccc2=O)cc1 [Example 10, 4-((6-oxopyrimidin-1(6H)-yl)methyl)benzamide] | 260% | –
CCN(CC)C(=O)c1ccc(Cn2cnccc2=O)cc1 [Example 11, N,N-diethyl-4-((6-oxopyrimidin-1(6H)-yl)methyl)benzamide] | 230% | –
CC(C)NC(=O)c1ccc(Cn2cnccc2=O)cc1 [Example 12, N-isopropyl-4-((6-oxopyrimidin-1(6H)-yl)methyl)benzamide] | 210% | –
O=C(NCc1ccc(F)cc1)c1ccc(Cn2cnccc2=O)cc1 [Example 13, N-(4-fluorobenzyl)-4-((6-oxopyrimidin-1(6H)-yl)methyl)benzamide] | 190% | –
O=C(NCC(F)(F)F)c1ccc(Cn2cnccc2=O)cc1 [Example 14, 4-((6-oxopyrimidin-1(6H)-yl)methyl)-N-(2,2,2-trifluoroethyl)benzamide] | 180% | –
CC(C)N(C)C(=O)c1ccc(Cn2cnc3ccccc3c2=O)cc1 [Example 15, N-isopropyl-N-methyl-4-((4-oxoquinazolin-3(4H)-yl)methyl)benzamide] | – | 190%
CN(Cc1ccccc1)C(=O)c1ccc(Cn2cnc3ccccc3c2=O)cc1 [Example 16, N-benzyl-N-methyl-4-((4-oxoquinazolin-3(4H)-yl)methyl)benzamide] | – | 160%
CN(CC(F)(F)F)C(=O)c1ccc(Cn2cnc3ccccc3c2=O)cc1 [Example 17, N-methyl-4-((4-oxoquinazolin-3(4H)-yl)methyl)-N-(2,2,2-trifluoroethyl)benzamide] | – | 170%
Cc1ncn(Cc2ccc(C(=O)N(C)C)cc2)c(=O)c1C [Example 18, 4-((4,5-dimethyl-6-oxopyrimidin-1(6H)-yl)methyl)-N,N-dimethylbenzamide] | 170% | –
